Reference: ChEMBL document CHEMBL3627604, “Design of novel 3,6-diazabicyclo[3.1.1]heptane derivatives with potent and selective affinities for α4β2 neuronal nicotinic acetylcholine receptors” (Eur J Med Chem, 2015)
Calls of active or inactive are those of the source. The calls are words filed in the database; no cut-off is given here.

Columns and labels:
[1] = molecular target: Neuronal acetylcholine receptor subunit alpha-7 (Rattus norvegicus, UniProt Q05941); test: Displacement of [125I]alpha-Bungarotoxin from alpha7 nAChR in Sprague-Dawley rat hippocampal membranes pre-incubated for 5 mins followed by overnight incubation by radioligand liquid scintillation counter analysis
[2] = Displacement of [3H]-Epibatidine from alpha4beta2* nAChR in Sprague-Dawley rat cortical membranes pre-incubated for 5 mins followed by overnight incubation by radioligand liquid scintillation counter analysis
Rattus norvegicus [3] = species on record: Rattus norvegicus; test: Selectivity ratio of Ki for alpha7 nAChR in Sprague-Dawley rat hippocampal membranes to Ki for alpha4beta2 nAChR in Sprague-Dawley rat cortical membranes
[4] = Binding affinity to alpha4beta2* nAChR in Sprague-Dawley rat cortical membranes after overnight incubation by radioligand liquid scintillation counter analysis
[5] = molecular target: Neuronal acetylcholine receptor; alpha3/beta4 (Homo sapiens, UniProt P30926+P32297); test: Displacement of [3H]-Epibatidine from human aplha3beta4 nAChR expressed in HEK293 cells pre-incubated for 5 mins followed by overnight incubation by radioligand liquid scintillation counter analysis; assay type: cell-based
[6] = Antagonist activity against alpha6beta2* nAChR in Sprague-Dawley rat […] assessed as inhibition of nicotine-induced [3H]-dopamine release after 5 mins by microbeta counting
[7] = Displacement of [3H]-Epibatidine from aplha6beta2* nAChR in Sprague-Dawley rat cortical membranes pre-incubated for 5 mins followed by overnight incubation by radioligand liquid scintillation counter analysis
[8] = molecular target: Neuronal acetylcholine receptor; alpha4/beta2 (Rattus norvegicus, UniProt P09483+P12390); test: Agonist activity at alpha4beta2 nAChR in Sprague-Dawley rat striatal slices assessed as increase in [3H]-Dopamine release after 5 mins by microbeta counting; assay type: protein-complex assay
HEK293 = test: Selectivity ratio of Ki for aplha6beta2* nAChR in Sprague-Dawley rat cortical membranes to Ki for human aplha3beta4 nAChR expressed in HEK293 cells; assay type: cell-based
Rattus norvegicus [9] = species on record: Rattus norvegicus; test: Agonist activity at aplha6beta2* nAChR in Sprague-Dawley rat striatal slices assessed as stinulation of [3H]-dopamine release in presence of 100 nM alpha-conotoxin MII after 5 mins by microbeta counting
[10] = molecular target: Neuronal acetylcholine receptor; alpha4/beta2 (Rattus norvegicus) (UniProt P09483+P12390); test: Agonist activity at alpha4beta2 nAChR in Sprague-Dawley rat striatal slices assessed as increase in [3H]-dopamine release after 5 mins by microbeta counting relative to nicotine; assay type: protein-complex assay

Neuronal acetylcholine receptor subunit alpha-7, sequence (Q05941 whole entry): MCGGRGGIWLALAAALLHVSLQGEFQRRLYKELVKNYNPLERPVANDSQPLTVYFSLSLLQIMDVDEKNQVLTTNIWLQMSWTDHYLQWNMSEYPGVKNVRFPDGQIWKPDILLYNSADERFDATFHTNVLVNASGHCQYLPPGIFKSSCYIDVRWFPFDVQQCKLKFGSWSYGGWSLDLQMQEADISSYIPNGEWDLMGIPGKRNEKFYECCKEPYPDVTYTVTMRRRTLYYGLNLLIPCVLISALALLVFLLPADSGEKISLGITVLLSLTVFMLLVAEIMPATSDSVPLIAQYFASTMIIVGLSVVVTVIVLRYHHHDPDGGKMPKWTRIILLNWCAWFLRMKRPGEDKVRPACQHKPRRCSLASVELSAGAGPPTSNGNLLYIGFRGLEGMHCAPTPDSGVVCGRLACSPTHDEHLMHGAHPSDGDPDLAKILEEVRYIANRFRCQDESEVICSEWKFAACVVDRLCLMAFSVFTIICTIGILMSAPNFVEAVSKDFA
Neuronal acetylcholine receptor; alpha3/beta4, sequence (P30926 whole entry): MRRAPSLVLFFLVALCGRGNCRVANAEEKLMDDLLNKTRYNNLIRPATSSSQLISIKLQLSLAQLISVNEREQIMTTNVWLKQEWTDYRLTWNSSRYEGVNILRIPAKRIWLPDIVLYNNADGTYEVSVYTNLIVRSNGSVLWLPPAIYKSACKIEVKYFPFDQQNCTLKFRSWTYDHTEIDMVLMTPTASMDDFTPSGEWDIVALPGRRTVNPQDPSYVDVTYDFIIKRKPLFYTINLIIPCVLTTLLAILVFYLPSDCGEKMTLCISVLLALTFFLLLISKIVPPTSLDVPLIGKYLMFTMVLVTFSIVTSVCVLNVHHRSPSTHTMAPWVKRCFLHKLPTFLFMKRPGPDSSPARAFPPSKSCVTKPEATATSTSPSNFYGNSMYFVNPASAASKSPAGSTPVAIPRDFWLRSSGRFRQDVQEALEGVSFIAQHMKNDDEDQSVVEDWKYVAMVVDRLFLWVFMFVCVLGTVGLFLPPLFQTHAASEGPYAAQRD
Neuronal acetylcholine receptor; alpha3/beta4, sequence (P32297 whole entry): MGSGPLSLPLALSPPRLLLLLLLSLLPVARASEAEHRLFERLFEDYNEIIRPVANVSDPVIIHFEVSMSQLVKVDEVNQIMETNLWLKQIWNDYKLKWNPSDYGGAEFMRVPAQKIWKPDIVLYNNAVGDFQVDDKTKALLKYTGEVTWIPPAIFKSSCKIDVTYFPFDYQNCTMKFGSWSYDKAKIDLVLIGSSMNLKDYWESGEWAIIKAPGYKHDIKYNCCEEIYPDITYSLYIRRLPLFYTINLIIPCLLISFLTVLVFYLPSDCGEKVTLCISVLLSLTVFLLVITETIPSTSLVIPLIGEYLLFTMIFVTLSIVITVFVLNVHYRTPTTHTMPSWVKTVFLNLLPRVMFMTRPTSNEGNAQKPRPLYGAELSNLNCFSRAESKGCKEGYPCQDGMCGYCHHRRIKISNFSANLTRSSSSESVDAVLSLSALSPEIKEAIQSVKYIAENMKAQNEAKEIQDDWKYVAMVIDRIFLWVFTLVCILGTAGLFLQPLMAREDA
Neuronal acetylcholine receptor; alpha4/beta2, sequence (P09483 whole entry): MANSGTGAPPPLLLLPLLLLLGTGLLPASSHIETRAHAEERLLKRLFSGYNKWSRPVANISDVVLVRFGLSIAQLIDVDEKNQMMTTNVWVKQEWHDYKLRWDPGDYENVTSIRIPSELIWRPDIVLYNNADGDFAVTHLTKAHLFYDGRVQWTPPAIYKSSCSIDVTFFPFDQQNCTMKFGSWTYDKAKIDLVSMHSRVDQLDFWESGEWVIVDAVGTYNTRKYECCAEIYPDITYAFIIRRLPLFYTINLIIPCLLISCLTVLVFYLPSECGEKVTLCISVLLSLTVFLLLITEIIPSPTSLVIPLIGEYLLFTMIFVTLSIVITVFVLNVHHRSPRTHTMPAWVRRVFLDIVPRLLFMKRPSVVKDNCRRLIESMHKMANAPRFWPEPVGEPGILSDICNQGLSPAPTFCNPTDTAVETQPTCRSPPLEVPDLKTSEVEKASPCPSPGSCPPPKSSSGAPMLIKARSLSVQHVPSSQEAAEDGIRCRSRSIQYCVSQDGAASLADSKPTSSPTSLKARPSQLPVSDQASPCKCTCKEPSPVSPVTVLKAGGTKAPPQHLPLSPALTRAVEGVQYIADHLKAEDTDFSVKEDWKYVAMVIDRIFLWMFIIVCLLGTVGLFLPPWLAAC
Neuronal acetylcholine receptor; alpha4/beta2, sequence (P12390 whole entry): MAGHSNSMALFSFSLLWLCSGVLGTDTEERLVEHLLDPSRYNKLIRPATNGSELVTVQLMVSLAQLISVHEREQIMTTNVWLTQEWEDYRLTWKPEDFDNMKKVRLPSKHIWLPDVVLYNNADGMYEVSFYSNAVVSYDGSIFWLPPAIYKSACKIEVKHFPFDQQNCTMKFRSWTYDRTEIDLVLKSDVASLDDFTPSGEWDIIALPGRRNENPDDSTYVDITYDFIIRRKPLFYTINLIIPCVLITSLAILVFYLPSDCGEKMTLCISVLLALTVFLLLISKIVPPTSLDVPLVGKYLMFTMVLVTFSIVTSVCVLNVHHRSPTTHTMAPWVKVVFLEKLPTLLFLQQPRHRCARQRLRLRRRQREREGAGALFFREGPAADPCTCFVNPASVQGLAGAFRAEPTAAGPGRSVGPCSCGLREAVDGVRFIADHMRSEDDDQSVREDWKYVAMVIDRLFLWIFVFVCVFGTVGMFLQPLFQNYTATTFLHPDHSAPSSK

Compound | Ki [1] | Ki [2] | Ratio Ki (Rattus norvegicus [3]) | further results
Cc1ccc(-c2cncc(N3CC4CC(C3)N4)c2)cc1 | 96000 nM | 0.0143 nM | 6.69e+06 | 
Brc1cncc(N2CC3CC(C2)N3)c1 | 176 nM | 0.00572 nM | 30800 | 
Clc1ccc(-c2cncc(N3CC4CC(C3)N4)c2)cc1 | 48000 nM | 0.0328 nM | 1.46e+06 | 
COc1ccc(-c2cncc(N3CC4CC(C3)N4)c2)cc1 | 6500 nM | 0.0121 nM | 537000 | 
Clc1ccc([C@@H]2C[C@H]3CC[C@@H]2N3)cn1 [(+)-EPIBATIDINE] |  |  |  | Ki [4]: 0.043 nM
Clc1ccc(-c2cncc(N3CC4CC(C3)N4)c2)c(Cl)c1 | 13000 nM | 0.0821 nM |  | 
Fc1ccc(-c2cncc(N3CC4CC(C3)N4)c2)cc1 | 110000 nM | 0.0248 nM | 4.44e+06 | Ki [5]: 1.6 nM; IC50 [6]: 0.7 nM; Ki [7]: 0.032 nM; EC50 [8]: Not Active
O=[N+]([O-])c1ccc(-c2cncc(N3CC4CC(C3)N4)c2)cc1 | 5000 nM | 0.0105 nM | 478000 | 
Brc1ccc(-c2cncc(N3CC4CC(C3)N4)c2)cc1 | 34000 nM | 0.151 nM | 226000 | 
Clc1cncc(N2CC3CC(C2)N3)c1 | 73 nM | 0.00632 nM | 11600 | Ki [5]: 2.6 nM; Ratio Ki (HEK293): 411; Activity (Rattus norvegicus [9]): inactive; Ki [7]: 0.0112 nM; EC50 ([8]; read-out: EC50): 1.4 nM; Efficacy [10]: 111%
Clc1ccc(-c2cncc(N3CC4CC(C3)N4)c2)cc1Cl | 36000 nM | 0.0908 nM | 397000 | 
c1ccc(-c2cncc(N3CC4CC(C3)N4)c2)cc1 | 17000 nM | 0.0112 nM | 1.52e+06 | Ki [5]: 6.1 nM; Ratio Ki (HEK293): 521; IC50 [6]: 5.87 nM; Ki [7]: 0.0112 nM; EC50 [8]: Not Active
Clc1ccc(Cl)c(-c2cncc(N3CC4CC(C3)N4)c2)c1 | 6000 nM | 0.0667 nM | 90000 | 
Clc1ccc(N2CC3CC(C2)N3)cn1 |  |  |  | Ki [5]: 0.2 nM; Activity (Rattus norvegicus [9]): inactive; Ki [7]: 0.0048 nM; EC50 ([8]; read-out: EC50): 1.16 nM; Efficacy [10]: 120%
